Results published in the supplement of paper PMC11451515.

Key:
Details in all cases: 48 h
SEM cells [1] = assay: cell viability relative to DMSO control; higher = less cytotoxic
Method in brief: (§1)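 Viability is expressed as a percentage of DMSO wells within each plate, and cell-free wells serve as background. Seeding densities in the 1536-well plates (5 μl) were 500 cells/well for NOMO1 or SEM leukemia cells and 1000 cells/well for P12-Ichikawa. Each line was adapted for at least four passages in each medium. Library compounds in DMSO were pin-dosed at 47 μM to 0.79 nM (11 points, threefold), and CellTiter-Glo One luminescence was read after 48 h at 37°C.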

P12-Ichikawa [2] = assay: as above
Method in brief: as §1

NOMO1 [3] = assay: as above
Method in brief: as §1

SEM cells [4] = assay: AUC of viability dose-response curve (% viability x log10 dose units); higher = less sensitive
Method in brief: (§2)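 In 1536-well plates, leukemia cells adapted to each medium (500 or 1000 cells/well) were exposed for 48 h at 37°C to library compounds in DMSO across 11 threefold doses, 47 μM down to 0.79 nM. Viability was read by CellTiter-Glo One luminescence and normalised per plate to DMSO and cell-free wells. A four-parameter log-logistic fit over log10 doses was integrated by trapezoidal rule. This yielded the area under the curve, with over-full-viability curves scaled and quality-control failures dropped.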

P12-Ichikawa [5] = assay: as above
Method in brief: as §2

NOMO1 [6] = assay: as above
Method in brief: as §2

CCOC(=O)Nc1ccc(NCc2ccc(F)cc2)nc1N
cell viability [%]
Details | NOMO1 [3] | P12-Ichikawa [2] | SEM cells [1]
HPLM + 10% dialyzed FBS, 0.000781 µM | 123 | 114 | 111
HPLM + 10% dialyzed FBS, 0.00234 µM | 137 | 114 | 104
HPLM + 10% dialyzed FBS, 0.00702 µM | 114 | 110 | 119
HPLM + 10% dialyzed FBS, 0.0211 µM | 127 | 113 | 102
HPLM + 10% dialyzed FBS, 0.0632 µM | 117 | 120 | 105
HPLM + 10% dialyzed FBS, 0.19 µM | 117 | 117 | 117
HPLM + 10% dialyzed FBS, 0.569 µM | 108 | 109 | 94.9
HPLM + 10% dialyzed FBS, 1.71 µM | 101 | 105 | 114
HPLM + 10% dialyzed FBS, 5.12 µM | 104 | 96.5 | 99.9
HPLM + 10% dialyzed FBS, 15.4 µM | 109 | 94.6 | 115
HPLM + 10% dialyzed FBS, 46.1 µM | 120 | 107 | 101
RPMI 5 mM glucose + 10% FBS, 0.000781 µM | 118 | 107 | 117
RPMI 5 mM glucose + 10% FBS, 0.00234 µM | 105 | 116 | 121
RPMI 5 mM glucose + 10% FBS, 0.00702 µM | 103 | 116 | 119
RPMI 5 mM glucose + 10% FBS, 0.0211 µM | 111 | 125 | 117
RPMI 5 mM glucose + 10% FBS, 0.0632 µM | 110 | 118 | 125
RPMI 5 mM glucose + 10% FBS, 0.19 µM | 127 | 111 | 118
RPMI 5 mM glucose + 10% FBS, 0.569 µM | 101 | 110 | 118
RPMI 5 mM glucose + 10% FBS, 1.71 µM | 105 | 102 | 116
RPMI 5 mM glucose + 10% FBS, 5.12 µM | 103 | 91 | 109
RPMI 5 mM glucose + 10% FBS, 15.4 µM | 114 | 108 | 116
RPMI 5 mM glucose + 10% FBS, 46.1 µM | 106 | 99.8 | 65.3
RPMI 5 mM glucose + 10% dialyzed FBS, 0.000781 µM | 108 | 115 | 115
RPMI 5 mM glucose + 10% dialyzed FBS, 0.00234 µM | 113 | 101 | 98.9
RPMI 5 mM glucose + 10% dialyzed FBS, 0.00702 µM | 110 | 101 | 120
RPMI 5 mM glucose + 10% dialyzed FBS, 0.0211 µM | 123 | 104 | 128
RPMI 5 mM glucose + 10% dialyzed FBS, 0.0632 µM | 122 | 111 | 131
RPMI 5 mM glucose + 10% dialyzed FBS, 0.19 µM | 109 | 111 | 128
RPMI 5 mM glucose + 10% dialyzed FBS, 0.569 µM | 119 | 112 | 138
RPMI 5 mM glucose + 10% dialyzed FBS, 1.71 µM | 119 | 103 | 113
RPMI 5 mM glucose + 10% dialyzed FBS, 5.12 µM | 112 | 104 | 104
RPMI 5 mM glucose + 10% dialyzed FBS, 15.4 µM | 106 | 101 | 115
RPMI 5 mM glucose + 10% dialyzed FBS, 46.1 µM | 102 | 100 | 80.2

AUC of viability dose-response curve
Details | NOMO1 [6] | P12-Ichikawa [5] | SEM cells [4]
HPLM + 10% dialyzed FBS | 439 | 456 | 467
RPMI 5 mM glucose + 10% FBS | 469 | 451 | 466
RPMI 5 mM glucose + 10% dialyzed FBS | 469 | 464 | 461

CN1CCN(C(=O)O[C@H]2c3nccnc3C(=O)N2c2ccc(Cl)cn2)CC1
cell viability [%]
Details | NOMO1 [3] | P12-Ichikawa [2] | SEM cells [1]
HPLM + 10% dialyzed FBS, 0.000781 µM | 115 | 112 | 103
HPLM + 10% dialyzed FBS, 0.00234 µM | 102 | 108 | 105
HPLM + 10% dialyzed FBS, 0.00702 µM | 119 | 105 | 99.8
HPLM + 10% dialyzed FBS, 0.0211 µM | 114 | 111 | 104
HPLM + 10% dialyzed FBS, 0.0632 µM | 114 | 104 | 101
HPLM + 10% dialyzed FBS, 0.19 µM | 112 | 110 | 89
HPLM + 10% dialyzed FBS, 0.569 µM | 114 | 103 | 108
HPLM + 10% dialyzed FBS, 1.71 µM | 101 | 108 | 97.9
HPLM + 10% dialyzed FBS, 5.12 µM | 91.1 | 101 | 105
HPLM + 10% dialyzed FBS, 15.4 µM | 98.4 | 98.2 | 39.8
HPLM + 10% dialyzed FBS, 46.1 µM | 88.1 | 99.9 | 95.8
RPMI 5 mM glucose + 10% FBS, 0.000781 µM | 94.8 | 96.8 | 101
RPMI 5 mM glucose + 10% FBS, 0.00234 µM | 99.2 | 102 | 106
RPMI 5 mM glucose + 10% FBS, 0.00702 µM | 92.4 | 106 | 109
RPMI 5 mM glucose + 10% FBS, 0.0211 µM | 106 | 106 | 111
RPMI 5 mM glucose + 10% FBS, 0.0632 µM | 103 | 101 | 109
RPMI 5 mM glucose + 10% FBS, 0.19 µM | 99.4 | 106 | 96.6
RPMI 5 mM glucose + 10% FBS, 0.569 µM | 99.4 | 103 | 99.9
RPMI 5 mM glucose + 10% FBS, 1.71 µM | 97.9 | 95.5 | 116
RPMI 5 mM glucose + 10% FBS, 5.12 µM | 99.3 | 93 | 108
RPMI 5 mM glucose + 10% FBS, 15.4 µM | 93.8 | 95.1 | 43.4
RPMI 5 mM glucose + 10% FBS, 46.1 µM | 84.6 | 88 | 89
RPMI 5 mM glucose + 10% dialyzed FBS, 0.000781 µM | 97.6 | 98.6 | 110
RPMI 5 mM glucose + 10% dialyzed FBS, 0.00234 µM | 107 | 102 | 105
RPMI 5 mM glucose + 10% dialyzed FBS, 0.00702 µM | 103 | 98.9 | 113
RPMI 5 mM glucose + 10% dialyzed FBS, 0.0211 µM | 94.2 | 105 | 111
RPMI 5 mM glucose + 10% dialyzed FBS, 0.0632 µM | 99.1 | 92.9 | 102
RPMI 5 mM glucose + 10% dialyzed FBS, 0.19 µM | 97 | 102 | 105
RPMI 5 mM glucose + 10% dialyzed FBS, 0.569 µM | 105 | 101 | 110
RPMI 5 mM glucose + 10% dialyzed FBS, 1.71 µM | 97.2 | 99.1 | 110
RPMI 5 mM glucose + 10% dialyzed FBS, 5.12 µM | 97 | 102 | 103
RPMI 5 mM glucose + 10% dialyzed FBS, 15.4 µM | 88.5 | 93.6 | 30.6
RPMI 5 mM glucose + 10% dialyzed FBS, 46.1 µM | 78.5 | 85.1 | 95.6

AUC of viability dose-response curve
Details | NOMO1 [6] | P12-Ichikawa [5] | SEM cells [4]
HPLM + 10% dialyzed FBS | 451 | 468 | 453
RPMI 5 mM glucose + 10% FBS | 467 | 461 | 450
RPMI 5 mM glucose + 10% dialyzed FBS | 464 | 470 | 445
